Positions of bridges follow the written chain, without caps; N, C: chain ends. Non-standard residues stand in square brackets, D forms with d. Residues, ends and D or L forms follow the SMILES beside them. Phe(4-F) = N[C@@H](Cc1ccc(F)cc1)C(=O)O; Gla = N[C@@H](CC(C(=O)O)C(=O)O)C(=O)O; Cha = N[C@@H](CC1CCCCC1)C(=O)O
Columns and labels:
[1] = target: IL-6-induced pSTAT3 in U937 cells (Homo sapiens, UniProt P05231); experiment: pSTAT3 HTRF assay in U937 cells; assay type: cell-based
Procedure: Peptides were serially diluted in medium containing 10% fetal bovine serum (FBS)/4% DMSO, then added to recombinant IL-6 (Xtal Biostructures, Inc., Natick, MA) at 28.2 ng/mL and the resulting plate was incubated at room temperature with shaking for 2.5 h at 37°C. […] After incubation for 12 min at 37°C the cells were centrifuged at 4°C (1400 rpm for 5 min) and the media was removed from the plates. Cells were placed on ice and 50 μL lysis buffer (Cisbio Assays, Bedford MA) was added. Phosphorylation of STAT3 was detected as described by the provider (Cisbio Assays). Briefly, cells were lysed for 30 min at room temperature and then 16 μL of lysates was added to a 384-well Proxiplate (Perkin Elmer, Waltham, MA). Anti-STAT3-d2+anti pSTAT-3-K detection cocktail (4μL; Cisbio Assays) was then added to the wells and the plate covered with a plate sealer and returned to 4°C overnight. Plates were then read with an Envision plate reader at ex 340, em 615 and 665 nm. […] These mixtures were then added to U937 cells for 15 min at 37°C and pSTAT3 was detected as described above.

IL-6 = conditions: cited from earlier work
Procedure: The inhibitory potency of PN-2921 was assessed in human whole blood ...

[2] = Comparative PK of PEGylated peptides in rats; assay type: in vivo; conditions: rat; male rats, single SC dose 0.23 μmol/kg, plasma, LC-MS/MS, non-compartmental; read-out: PK half-life (t1/2) (converted)
Procedure: Male rats for pharmacokinetic studies were obtained from Harlan Laboratories (South Easton, MA. […] For all time points, blood samples were collected via retro-orbital eye bleed or exsanguination via abdominal aorta into tubes containing K2EDTA and were processed into plasma, which was placed in Eppendorf Protein LoBind tubes and stored frozen at approximately -70°C until quantitative bioanalysis.
The dosing solutions were formulated just prior to administration, in sterile 1X PBS with 0.1% BSA. Plasma sample extraction was performed by aliquoting 100 μL of each rat plasma sample into a standard 96-well plate. To each well, 400 μL of 5% formic acid in acetonitrile (containing 200 ng/mL of internal standard) was added. The plate was vortexed at high speed for approximately 10 min and then centrifuged for 15 min, 4700 x g at 4°C. Supernatant (425 μL) was transferred into a clean 96-well plate and evaporated to dryness under nitrogen at approximately 50°C. The extracts were then reconstituted in 50 μL of 1% formic acid in 60% acetonitrile.
Reconstituted extracts (5 μL) were analyzed by liquid chromatography-tandem mass spectrometry (LC-MS/MS) with positive electrospray ionization (QTrap 5500, AB SCIEX, Framingham, MA). […]

IL-6/IL-6R = target: T1, IL-6/IL-6R (Homo sapiens, UniProt P05231); experiment: IL-6 – IL-6R competition ELISA; assay type: binding; conditions: compared to PN-1454
T1 construct: purchased PeproTech
T1 sequence (P05231 30-212): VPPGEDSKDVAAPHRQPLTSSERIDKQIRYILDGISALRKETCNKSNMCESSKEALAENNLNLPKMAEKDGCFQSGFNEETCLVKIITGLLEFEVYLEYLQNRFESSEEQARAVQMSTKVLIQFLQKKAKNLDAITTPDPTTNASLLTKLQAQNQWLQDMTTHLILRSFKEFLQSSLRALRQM
Procedure: Peptides were initially evaluated using a competitive enzyme-linked immunosorbent assay (ELISA). High binding 96-well microtiter plates (half-area, Corning Life Sciences, Corning, NY)) were coated with 0.1 μg per well of IL-6R (PeproTech, Rocky Hill, NJ) overnight at 4°C. The wells were then blocked for 2 h with a 1% BSA (Sigma, St. Louis, MO) solution containing 0.1% Tween-20 (Amresco, Solon, OH) and subsequently washed with wash buffer (PBS containing 0.1% Tween-20). Peptides were serially diluted in assay buffer (0.1% BSA, 0.05% Tween-20 in PBS) and incubated with a 50 pM biotinylated IL-6 (PeproTech) for 30 min at room temperature. This mixture was then transferred to an assay plate, and the plate incubated for 1 h. The plate was washed with wash buffer, and presence of bound IL-6 detected through addition of streptavidin poly-horseradish peroxidase conjugate (Pierce, Rockford IL). Plates were developed using a TMB substrate kit (Pierce) and stopped with 2N H2SO4. Inhibition of complex formation was measured as a reduction in absorbance at 450 nm.

Chain of IL-6-induced pSTAT3 in U937 cells (P05231 30-212): as above

## CC[C@H](C)[C@@H]1NC(=O)[C@@H](NC(=O)[C@H](CC(=O)O)NC(=O)[C@H](CC2CCCCC2)NC(=O)[C@H](CC(=O)O)NC(=O)[C@H](CO)NC(=O)[C@H](CCC(N)=O)NC(C)=O)CSSC[C@@H](C(=O)N[C@@H](CCC(=O)O)C(=O)O)NC(=O)[C@H](CCC(=O)O)NC(=O)[C@H](CC(=O)O)NC(=O)[C@H](CC(N)=O)NC(=O)[C@H]([C@@H](C)CC)NC(=O)[C@H](CCCCN)NC(=O)[C@H](CC(C(=O)O)C(=O)O)NC(=O)[C@H]([C@@H](C)CC)NC(=O)[C@H](CCCNC(=N)N)NC(=O)[C@H](CCC(=O)O)NC(=O)[C@H](Cc2c[nH]c3ccccc23)NC(=O)[C@H](CCCNC(=N)N)NC(=O)[C@H](CCC(N)=O)NC(=O)[C@H](CCC(=O)O)NC(=O)[C@H](CCC(=O)O)NC(=O)[C@H]([C@@H](C)O)NC(=O)[C@H](CC(C)C)NC(=O)[C@H](CC(N)=O)NC(=O)[C@@H]2CCCN2C(=O)[C@H](CC(=O)O)NC(=O)[C@H](CC(C)C)NC(=O)[C@H](Cc2ccc(F)cc2)NC(=O)[C@H](C)NC(=O)[C@H](CCC(=O)O)NC(=O)[C@H](CC(C)C)NC(=O)[C@H](CC(C)C)NC(=O)[C@H](CCCNC(=N)N)NC(=O)[C@H](Cc2c[nH]cn2)NC1=O [PN-2519] (Ac-QSD[Cha]DCIHRLLEA[Phe(4-F)]LDPNLTEEQRWERI[Gla]KINDECE-OH; disulfide 6-35)
[1]; compared to PN-1974, U937 pSTAT3
  fold improvement in cell-based activity: ~ 1000 fold
[1]; effect of PEG molecular weight, PEGylation at position 29
  antagonist activity in the IL-6 pSTAT3 assay in U937 cells (Fig 2C): comparable

## siltuximab: monoclonal antibody specific for IL-6
IL-6
  potency: pM range

## CC[C@H](C)[C@@H]1NC(=O)[C@@H](NC(=O)[C@H](CC(=O)O)NC(=O)[C@H](CC2CCCCC2)NC(=O)[C@H](CC(=O)O)NC(=O)[C@H](CO)NC(=O)[C@H](CCC(N)=O)NC(C)=O)CSSC[C@@H](C(=O)N[C@@H](CCC(=O)O)C(=O)O)NC(=O)[C@H](CCC(=O)O)NC(=O)[C@H](CC(=O)O)NC(=O)[C@H](CC(N)=O)NC(=O)[C@H]([C@@H](C)CC)NC(=O)[C@H](CCCCN)NC(=O)[C@H](CC(C(=O)O)C(=O)O)NC(=O)[C@H]([C@@H](C)CC)NC(=O)[C@H](CCCCN)NC(=O)[C@H](CCC(=O)O)NC(=O)[C@H](Cc2c[nH]c3ccccc23)NC(=O)[C@H](CCCNC(=N)N)NC(=O)[C@H](CCC(N)=O)NC(=O)[C@H](CCC(=O)O)NC(=O)[C@H](CCC(=O)O)NC(=O)[C@H]([C@@H](C)O)NC(=O)[C@H](CC(C)C)NC(=O)[C@H](CC(N)=O)NC(=O)[C@@H]2CCCN2C(=O)[C@H](CC(=O)O)NC(=O)[C@H](CC(C)C)NC(=O)[C@H](Cc2ccc(F)cc2)NC(=O)[C@H](C)NC(=O)[C@H](CCC(=O)O)NC(=O)[C@H](CC(C)C)NC(=O)[C@H](CC(C)C)NC(=O)[C@H](CCCNC(=N)N)NC(=O)[C@H](Cc2c[nH]cn2)NC1=O [PN-2365] (Ac-QSD[Cha]DCIHRLLEA[Phe(4-F)]LDPNLTEEQRWEKI[Gla]KINDECE-OH; disulfide 6-35)
[2]
  half-life: 3.4 h

## CC[C@H](C)[C@@H]1NC(=O)[C@H](CCCCN)NC(=O)CNC(=O)[C@H](Cc2c[nH]c3ccccc23)NC(=O)[C@H](CCCNC(=N)N)NC(=O)[C@H](CCC(N)=O)NC(=O)[C@H](CCC(=O)O)NC(=O)[C@H](CO)NC(=O)[C@H](CC(N)=O)NC(=O)[C@H](CC(C)C)NC(=O)[C@H](CC(N)=O)NC(=O)[C@@H]2CCCN2C(=O)[C@H](CC(=O)O)NC(=O)[C@H](CC(C)C)NC(=O)[C@H](Cc2ccccc2)NC(=O)[C@H](C)NC(=O)[C@H](CCC(=O)O)NC(=O)[C@H](CC(C)C)NC(=O)[C@H](CC(C)C)NC(=O)[C@H](CCCNC(=N)N)NC(=O)[C@H](CCCNC(=N)N)NC(=O)[C@H]([C@@H](C)CC)NC(=O)[C@@H](NC(=O)[C@H](CCC(N)=O)NC(=O)[C@H](CC(C)C)NC(=O)[C@H](CC(N)=O)NC(=O)[C@H](Cc2ccccc2)NC(C)=O)CSSC[C@@H](C(N)=O)NC(=O)[C@H](CC(=O)O)NC(=O)[C@H](CC(=O)O)NC(=O)[C@H](CC(N)=O)NC(=O)[C@H]([C@@H](C)CC)NC(=O)[C@H](CO)NC(=O)[C@H](CC(=O)O)NC1=O [PN-1484] (Ac-FNLQCIRRLLEAFLDPNLNSEQRWGKIDSINDDC-NH2; disulfide 5-34 (inferred))
IL-6/IL-6R
  fold improvement in IC50 in the competitive ELISA: ~ 20 fold

Source: paper PMC4640888, “Discovery and Characterization of a Potent Interleukin-6 Binding Peptide with Neutralizing Activity In Vivo” (PLoS ONE, 2015)
